In PMC4736406 (Stem Cells International, 2016):
One block for each compound: values may come before it.

Experiments:
HepG2 cells = experiment: Image based high content analysis (HCA), fixed and live assays, in HepG2
Description: Briefly, the cells were grown in DMEM supplemented with 10% heat inactivated FBS, 1% penicillin-streptomycin (PEST), 1% sodium pyruvate, and 1% nonessential amino acids. Cells were passaged at 1 : 8 or 1 : 6 every 3-4 days when they reach 75–80% confluence. Seeding density was optimized for HCA application to ensure that the cells were in a monolayer (5000 cells per well in 96-well plates) for precise imaging. The cells were grown for 48 h to attach and stabilize. The experiments performed with HepG2 cells were designed to ensure that each assay was performed with cells in a similar growth phase.
Each concentration was assayed in triplicate wells. […] The experimental process is illustrated in Figure 2.
And finally, TOTO-3 was used for assessing PMP.
The cells were imaged using an Olympus ScanR system.
All other fluorescence signals were considered as subobjects.

[1] = plasma; no reference given; read-out: C max (maximum plasma concentration of the drug); cited from earlier work
[2] = system: hiPSC derived hepatocytes (hiPS-HEP);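 also: hiPS-HEP obtained from ChiPSC4 through definitive endoderm under serum- and feeder-free conditions in 96-well plates, fluorescence imaging, each concentration run in triplicate wells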
Description: (§1) For hepatic differentiation, a serum- and feeder-free procedure recapitulating liver development was applied. First, ChiPSC4 was guided to differentiate into definitive endoderm using the Cellartis DE Diff Kit (Takara Bio Europe AB; Y30030), containing complete media and coating solution for differentiation of hPSC to DE cells in 2D culture. On day 7 of differentiation, the DE cells were enzymatically dissociated and reseeded into fibronectin coated 96-well plates. […] Wells of 96-well plates were coated by adding fibronectin solution 0.15 mL per cm^2 to the wells and let to incubate for >60 min at RT. […] Next, the cell suspension was centrifuged for 5 min at 300 g at RT, the supernatant was removed, and the cell pellet was resuspended in warm Hepatocyte Thawing and Seeding medium (Cellartis Hepatocyte Diff Kit; Takara Bio Europe AB; Y30050). Prior to seeding of cells, excess coating was removed and 150 K DE cells/cm^2 were seeded in the 96-well plates. On days 9 and 11 (counted from the start of ChiPSC4 differentiation), medium was changed using Hepatocyte Progenitor Medium (Cellartis Hepatocyte Diff Kit).
(§2) The cells were treated for 48 h with compounds at varying concentrations (half log dilution from the top concentration). […] The stock solutions were prepared in DMSO or water and were diluted in culture medium to obtain the final concentration. Each concentration was assayed in triplicate wells. Vehicle control wells were included and the final DMSO concentration in the medium never exceeded 0.5% (v/v). Each batch had two plates each for fixed and live assays.
(§3) LipidTOX Green neutral lipids and LipidTox Red phospholipidosis were used for identifying neutral lipid and phospholipid formation within the cells. MMP changes (Δψm) within the cell were measured using MitoTracker orange. Carboxy-H2DCFDA (6-carboxy-2′,7′-dichlorodihydrofluorescein diacetate) an acetylated fluorescent was used for measuring ROS. And finally, TOTO-3 was used for assessing PMP.
(§4) The fluorescence probes were grouped into two sets according to their optical compatibility and requirement of fixed or live material. […] The fluorescent probes for neutral lipids and phospholipids required the cells to be fixed and were assigned to the fixed assay. The probes MitoTracker orange, carboxy-H2DCFDA, and TOTO-3 were assigned to the live assay.
(§5) Following compound incubation, probes were administered to the cultures of the live assay. […] After incubation for 45 min at optimal cell culture conditions, the cells were changed to phenol red (PR) free medium for live cell imaging. For fixed assay, LipidTox Red probe was added with the compounds, and after 48 h the cells were fixed in 4% PFA supplemented with 1X Hoechst stain for 30 min at room temperature. Subsequently, cells were washed with PBS^+/+ and 1X LipidTOX Green stain diluted in PBS^+/+ was incubated with the cells for 30 min at room temperature. The plates were imaged without removing the buffer with probe.
(§6) The cells were imaged using an Olympus ScanR system. Prior to image acquisition, the heating system and CO2 gas flow were started to ensure optimal conditions in the ScanR chamber for live cell analysis. The incubator was set to 37°C with 5% CO2 and relative humidity of 90%. […] 20X long distance objective with NA 0.45 was used to image distinct fluorescence channels. In order to cover the entire well and also to capture maximum cell events sixteen fields per well (4 × 4 tile grid spread equally) were imaged. The channel exposure time for LipidTOX Green, LipidTOX Red, MitoTracker orange, and carboxy-H2DCFHDA were set based on the fluorescence of the negative control wells and were set constant within each plate. Exposure time for Hoechst and TOTO-3 was set in the range of 1–10 ms depending on cellular fluorescence intensity.
(§7) The acquired images were analyzed using ScanR analysis program from Olympus.

[3] = system: hiPSC derived hepatocytes (hiPS-HEP); experiment: Image based high content analysis (HCA), fixed and live assays, in hiPSC derived hepatocytes;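 also: hiPS-HEP obtained from ChiPSC4 through definitive endoderm under serum- and feeder-free conditions in 96-well plates, fluorescence imaging, each concentration run in triplicate wells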
Description: as §1, §2, §3, §4, §5, §6, §7

[4] = HepG2, fixed, at 100 µM (Amiodarone HCL at […])

- IC50/EC50 Nucleus Cell count (HepG2 cells; HepG2, fixed assay, 48 h): 165 µM
- IC50/EC50 Nucleus MI (HepG2 cells; HepG2, fixed assay, 48 h): 892 µM
- IC50/EC50 Steatosis Area (HepG2 cells; HepG2, fixed assay, 48 h): 398 µM
- IC50/EC50 Steatosis Count (HepG2 cells; HepG2, fixed assay, 48 h): 260 µM
- IC50/EC50 MMP MI (HepG2 cells; HepG2, live assay, 48 h): 622 µM
- IC50/EC50 Nucleus Cell count (HepG2 cells; HepG2, live assay, 48 h): 120.3 µM
- IC50/EC50 Nucleus MI (HepG2 cells; HepG2, live assay, 48 h): 153 µM
- IC50/EC50 ROS MI (HepG2 cells; HepG2, live assay, 48 h): 115 µM
- MEC, MMP mean intensity (HepG2 cells; human, 48 h): 1000 µM
- MEC, PMP mean intensity (HepG2 cells; human, 48 h): 1000 µM
- MEC, ROS mean intensity (HepG2 cells; human, 48 h): 316 µM
- MEC, nuclear changes area (NC, A) (HepG2 cells; human, 48 h): 1000 µM
- MEC, nuclear changes mean intensity (NC, MI) (HepG2 cells; human, 48 h): 1000 µM
- MEC, steatosis droplet count (S, C) (HepG2 cells; human, 48 h): 316 µM
- MEC, steatosis mean intensity (S, MI) (HepG2 cells; human, 48 h): 1000 µM
- SRI (steatotic risk index) Lipid (HepG2 cells; human, 48 h): 36
- SRI (steatotic risk index) ROS (HepG2 cells; human, 48 h): 36
- Phospholipid parameters / accumulation of phospholipids [2]: no changes were detected
- ROS levels [2]: unaffected
- Concentration at which increase in lipid accumulation / lipid droplets was observed ([2]; human, 48 h): 320 µM
- MEC, MMP mean intensity ([2]; human, 48 h): 1000 µM
- MEC, PMP mean intensity ([2]; human, 48 h): 31.6 µM
- MEC, nuclear changes mean intensity (NC, MI) ([2]; human, 48 h): 100 µM
- MEC, steatosis droplet count (S, C) ([2]; human, 48 h): 316 µM
- MEC, steatosis mean intensity (S, MI) ([2]; human, 48 h): 1000 µM
- SRI (steatotic risk index) Lipid ([2]; human, 48 h): 36
- SRI (steatotic risk index) ROS ([2]; human, 48 h): >114
- Concentration from which effects on plasma membrane permeability (PMP) start ([3]; hiPSC derived hepatocytes): 32 µM
Structure (SMILES): C[C@H]1c2cccc(O)c2C(=O)C2=C(O)[C@]3(O)C(=O)C(C(N)=O)=C(O)[C@@H](N(C)C)[C@@H]3[C@@H](O)[C@@H]21 [Doxycycline, doxycycline]
- MEC, viability cell count (V, CC) (HepG2 cells; human, 48 h): 316 µM
- Minimal effective concentration (MEC), viability cell count (V, CC) (HepG2 cells; human, 48 h): 100 µM
- TR (toxicity risk) (HepG2 cells; human, 48 h): 11.4
- Cmax [1]: 8.8 µM
- Effect on mitochondrial membrane [2]: concentration dependent depolarization of the mitochondrial membrane
- MEC, viability cell count (V, CC) ([2]; human, 48 h): 1000 µM
- Minimal effective concentration (MEC), viability cell count (V, CC) ([2]; human, 48 h): 100 µM
- TR (toxicity risk) ([2]; human, 48 h): 3.6
- IC50/EC50 Nucleus Area ([3]; hiPS-HEP, fixed assay, 48 h): 96.1 µM
- IC50/EC50 Nucleus Cell count ([3]; hiPS-HEP, fixed assay, 48 h): 107 µM
- IC50/EC50 Nucleus MI ([3]; hiPS-HEP, fixed assay, 48 h): 47.2 µM
- IC50/EC50 Steatosis Count ([3]; hiPS-HEP, fixed assay, 48 h): 115 µM
- IC50/EC50 Steatosis MI ([3]; hiPS-HEP, fixed assay, 48 h): 441 µM
- IC50/EC50 MMP MI ([3]; hiPS-HEP, live assay, 48 h): 644 µM
- IC50/EC50 Nucleus Area ([3]; hiPS-HEP, live assay, 48 h): 204.3 µM
- IC50/EC50 Nucleus Cell count ([3]; hiPS-HEP, live assay, 48 h): 69.4 µM
- IC50/EC50 Nucleus MI ([3]; hiPS-HEP, live assay, 48 h): 120 µM
- IC50/EC50 PMP MI ([3]; hiPS-HEP, live assay, 48 h): 26.9 µM
- IC50/EC50 ROS MI ([3]; hiPS-HEP, live assay, 48 h): 10.5 µM
- Cell count reduction ([3]; hiPSC derived hepatocytes, at 100 μM): 50%

Structure (SMILES): O=C([O-])CC(O)(CC(=O)[O-])C(=O)[O-].[Na+].[Na+].[Na+] [Sodium citrate, sodium citrate]
- Degree of injury score, Phospholipids Area (HepG2 cells; [4]): 0 (variation lower than 25%)
- Degree of injury score, Phospholipids C (HepG2 cells; [4]): 1 (variation 25-150%)
- Degree of injury score, Phospholipids MI (HepG2 cells; [4]): 0 (variation lower than 25%)
- Score for phospholipidosis (HepG2 cells; HepG2 cultures, at 100 μM): false positive score
- Effects on all parameters measured over the whole dose range ([3]; hiPSC derived hepatocytes, negative control substance): No significant effects
